This is an account of results in ChEMBL document CHEMBL3046810, “Total synthesis of cis-solamin and its inhibitory action with bovine heart mitochondrial complex I” (Tetrahedron, 2004).

The structures appear in SMILES notation.

For orientation: IC50 means the point on the concentration scale where inhibition reaches its midpoint.

NADH-ubiquinone oxidoreductase chain 1, sequence (P03887 whole entry): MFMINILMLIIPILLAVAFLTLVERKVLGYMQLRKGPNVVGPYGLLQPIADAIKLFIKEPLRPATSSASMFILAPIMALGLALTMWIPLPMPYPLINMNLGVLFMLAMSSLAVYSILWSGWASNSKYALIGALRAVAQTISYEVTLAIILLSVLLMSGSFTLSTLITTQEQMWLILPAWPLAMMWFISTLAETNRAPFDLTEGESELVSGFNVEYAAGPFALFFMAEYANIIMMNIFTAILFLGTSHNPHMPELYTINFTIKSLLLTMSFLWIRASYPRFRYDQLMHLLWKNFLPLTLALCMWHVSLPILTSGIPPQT

The test has as its target NADH-ubiquinone oxidoreductase chain 1 (Bos taurus, UniProt P03887). Nature of the test: Inhibition of Bos taurus (bovine) mitochodrial complex 1 isolated from heart submitochondrial particle by NADH oxidase assay.
The compound `CCCCCCCCCCCC[C@H](O)[C@@H]1CC[C@H]([C@H](O)CCCCCCCCCCCCC2=C[C@H](C)OC2=O)O1` (stereo in doubt; 1a) [CIS-SOLAMIN] had an IC50 of 2.2 nM. Regarding `CCCCCCCCCCCC[C@H](O)[C@@H]1CC[C@H]([C@H](O)CCCCCCCCCCCCC2=C[C@H](C)OC2=O)O1` (stereo in doubt; 1b) [CIS-SOLAMIN], the IC50 came to 2.1 nM. With `CCCCCCCCCCCC[C@@H](O)[C@H]1CC[C@H]([C@H](O)CCCC[C@@H](O)CCCCCCCC2=C[C@H](C)OC2=O)O1` [(10S)-COROSSOLINE], inhibition was half-maximal at 2 nM (IC50).

Compound `CCCCCCCCCCCC[C@H](O)[C@H]1CC[C@H]([C@H](O)CCCCCCCCCCCCCCC2=C[C@H](C)OC2=O)O1` [(17R,18R,21R,22S)-reticulation-1] yielded an IC50 of 16 nM.

In turn, `CCCCCCCCCCCC[C@@H](O)[C@H]1CC[C@H]([C@@H](O)CCCCCCCCCCCCCCC2=C[C@H](C)OC2=O)O1` [(17S, 18S, 21S, 22R)-reticulation-1] had an IC50 of 17 nM. `CCCCCCCCCC[C@H](O)[C@H]1CC[C@H]([C@H]2CC[C@H]([C@H](O)CCCCCCCCCC[C@@H](O)CC3=C[C@H](C)OC3=O)O2)O1` [BULLATACIN] returned an IC50 of 0.8 nM. In the case of `CCCCCCCCCCCC[C@@H](O)[C@H]1CC[C@H]([C@H](O)CCCC[C@H](O)CCCCCCCC2=C[C@H](C)OC2=O)O1` [COROSSOLINE], half-maximal inhibition (IC50) was put at 1.5 nM.
